Measured values taken from paper PMC6166228 (ACS Omega, 2018).

Columns and labels:
[1] = molecular target: T1, human AT1 receptor (Homo sapiens, UniProt P30556); format: binding
T1 sequence (P30556 1-359): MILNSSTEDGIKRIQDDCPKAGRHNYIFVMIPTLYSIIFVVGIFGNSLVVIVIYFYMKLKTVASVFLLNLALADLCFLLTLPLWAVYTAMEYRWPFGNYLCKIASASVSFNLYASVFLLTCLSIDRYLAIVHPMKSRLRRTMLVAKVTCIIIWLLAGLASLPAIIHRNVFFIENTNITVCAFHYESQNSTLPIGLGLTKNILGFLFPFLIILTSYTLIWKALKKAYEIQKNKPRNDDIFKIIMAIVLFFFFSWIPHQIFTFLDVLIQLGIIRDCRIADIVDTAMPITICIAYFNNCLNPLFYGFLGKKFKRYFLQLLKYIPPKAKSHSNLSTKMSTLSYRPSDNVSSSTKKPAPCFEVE

[2] = no species and reference not given; cited from earlier work

Structure (SMILES) | Ki [1] [nM] | average half-life [2]
CC(C)[C@@H](C(=O)O)N(Cc1ccc(-c2ccccc2-c2nnn[nH]2)cc1)C(=O)CCCCF [FV45, (S)-2-(N-((2′-(1H-Tetrazol-5-yl)-[1,1′-biphenyl]-4-yl)methyl)-5-fluoropentanamido)-3-methylbutanoic Acid] | 14.6 | 
CCCCC(=O)N(Cc1ccc(-c2ccccc2-c2nnn[nH]2)cc1)[C@H](C(=O)O)C(C)C [valsartan] |  | around 6 h
